Results published in US9371527B2, “Compositions and methods related to protein displacement therapy for myotonic distrophy” (University of Rochester, priority 2006, dated 2016).

System: interaction of CUG repeat RNA with recombinant MBNL1 protein (MBNL1-PL)
Assay: Beta-galactosidase enzymatic complementation assay
Format: binding, human
Conditions: (CUG)109 tethered to streptavidin plate
Method: FIGS. 33A and 33B. […] (CUG)109 transcripts are tethered to the surface of a streptavidin-coated microtiter plate using a capture oligonucleotide that is biotinylated. The capture oligo anneals to complementary sequence at the 3′ end of the CUG repeat RNA. Recombinant human MBNL1 is expressed as a fusion with the PL fragment of beta-galactosidase. PL is a 55 amino acid fragment of beta-galactosidase. […] After incubation with test compound, unbound MBNL1-PL is washed away (FIG. 33B). Next, the complementing fragment of beta-galactosidase is added to determine the amount of MBNL1-PL that continues to interact with (CUG)109 RNA and thereby is retained on the microtiter plate. The binding of complementing fragment of beta-galactosidase to PL reconstitutes its enzymatic activity. This activity is then determined by adding substrate to provide a fluorescence or chemiluminescence signal from active beta-galactosidase. […]
(CUG)109 transcripts are tethered to the surface of a streptavidin-coated microtiter plate using a capture oligonucleotide that is biotinylated. […] Recombinant human MBNL1 is expressed as a fusion with the PL fragment of beta-galactosidase. […] This activity is then determined by adding substrate to provide a fluorescence or chemiluminescence signal from active beta-galactosidase. […]

CCCN(CCCN(C)C)c1cc(/C=C2/Sc3ccccc3N2C)c2ccccc2[n+]1-c1ccccc1 [SybrGreen]
amount of MBNL1-PL retained on plate (beta-galactosidase activity): reduce the amount of MBNL1-PL retained on plate
